Laboratory results reported in PubChem BioAssay AID330 (DTP/NCI, 2004).
“And” between values parts separate entries of the source, which are not always exact repeats. Equal values may be shown once. Toxic doses and inconclusive results are not listed.

Tested on: P388 leukemia ip, CD2F1 mice, survival T/C
Experiment: NCI In Vivo Anticancer Drug Screen. Data for tumor model P388 Leukemia (intraperitoneal) in CD2F1 (CDF1) mice
Conditions: endpoint: median survival time, higher = longer survival
How it was run: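 Mice carrying the transplanted tumor received test compound or vehicle. Survival was recorded in each group, and the value is the treated-group measurement divided by that of the vehicle-treated control group.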

[1] = dose: 100.0 mg/kg/injection, schedule: Q04DX003 (ip), vehicle: saline with Tween-80
[2] = dose: 400.0 mg/kg/injection, schedule: Q04DX003 (ip), vehicle: saline with Tween-80
[3] = dose: 25.0 mg/kg/injection, schedule: Q01DX009 (ip), vehicle: saline with Tween-80
[4] = dose: 50.0 mg/kg/injection, schedule: Q01DX009 (ip), vehicle: saline with Tween-80
[5] = dose: 50.0 mg/kg/injection, schedule: Q01DX005 (ip), vehicle: saline with Tween-80
[6] = dose: 100.0 mg/kg/injection, schedule: Q01DX005 (ip), vehicle: saline with Tween-80
[7] = dose: 200.0 mg/kg/injection, schedule: Q01DX005 (ip), vehicle: saline with Tween-80
[8] = dose: 25.0 mg/kg/injection, schedule: Q01DX009 (ip), vehicle: saline
[9] = dose: 50.0 mg/kg/injection, schedule: Q01DX009 (ip), vehicle: saline
[10] = dose: 100.0 mg/kg/injection, schedule: Q01DX009 (ip), vehicle: saline with Tween-80
[11] = dose: 100.0 mg/kg/injection, schedule: Q01DX009 (ip), vehicle: saline
[12] = dose: 50.0 mg/kg/injection, schedule: Q01DX005 (ip), vehicle: Klucel (hydroxypropylcellulose) (HPC)
[13] = dose: 100.0 mg/kg/injection, schedule: Q01DX005 (ip), vehicle: Klucel (hydroxypropylcellulose) (HPC)
[14] = dose: 200.0 mg/kg/injection, schedule: Q04DX003 (ip), vehicle: saline with Tween-80

CCN(CC)CCNc1ccc(CO)c2sc3ccccc3c(=O)c12
T/C (dose: 5.0 mg/kg/injection, schedule: Q01DX005 (ip), vehicle: water): 110 % of control
T/C (dose: 5.0 mg/kg/injection, schedule: Q01DX009 (ip), vehicle: water): 113 % of control
T/C (dose: 6.25 mg/kg/injection, schedule: Q01DX005 (ip), vehicle: saline): 104 % of control
T/C (dose: 6.25 mg/kg/injection, schedule: Q01DX005 (iv), vehicle: saline): 100 % of control
T/C (dose: 10.0 mg/kg/injection, schedule: Q01DX005 (ip), vehicle: water): 106 % of control
T/C (dose: 10.0 mg/kg/injection, schedule: Q01DX009 (ip), vehicle: water): 116 % of control
T/C (dose: 10.36 mg/kg/injection, schedule: Q01DX005 (ip), vehicle: water): 118 % of control
T/C (dose: 12.5 mg/kg/injection, schedule: Q01DX005 (ip), vehicle: saline): 101 % of control
T/C (dose: 12.5 mg/kg/injection, schedule: Q01DX005 (iv), vehicle: saline): 104 % of control
T/C (dose: 12.5 mg/kg/injection, schedule: Q01DX009 (ip), vehicle: water): 109 % of control
T/C (dose: 17.28 mg/kg/injection, schedule: Q01DX005 (ip), vehicle: water): 109 % of control
T/C (dose: 20.0 mg/kg/injection, schedule: Q01DX005 (ip), vehicle: water): 104 % of control
T/C (dose: 20.0 mg/kg/injection, schedule: Q01DX009 (ip), vehicle: water): 118 % of control
T/C (dose: 25.0 mg/kg/injection, schedule: Q01DX005 (ip), vehicle: saline): 109 % of control
T/C (dose: 25.0 mg/kg/injection, schedule: Q01DX005 (iv), vehicle: saline): 108 % of control
T/C (dose: 25.0 mg/kg/injection, schedule: Q01DX009 (ip), vehicle: water): 122 % of control
T/C (dose: 28.8 mg/kg/injection, schedule: Q01DX005 (ip), vehicle: water): 109 % of control
T/C (dose: 50.0 mg/kg/injection, schedule: Q01DX005 (iv), vehicle: saline): 117 % of control
T/C (dose: 50.0 mg/kg/injection, schedule: Q01DX009 (ip), vehicle: water): 156 % of control
T/C (dose: 80.0 mg/kg/injection, schedule: Q01DX005 (ip), vehicle: water): 151 % of control and 182 % of control
T/C (dose: 100.0 mg/kg/injection, schedule: Q01DX009 (ip), vehicle: water): 100 % of control
T/C [1]: 118 % of control
T/C (dose: 200.0 mg/kg/injection, schedule: Q04DX003 (ip), vehicle: saline sonified): 150 % of control
T/C [2]: 90 % of control

COc1cc(Cl)c(CC(=O)c2c[nH]c3ccccc23)cc1OC
T/C (dose: 6.25 mg/kg/injection, schedule: Q01DX009 (ip), vehicle: saline with Tween-80): 94 % of control
T/C (dose: 12.5 mg/kg/injection, schedule: Q01DX009 (ip), vehicle: saline with Tween-80): 92 % of control
T/C [3]: 100 % of control
T/C [4]: 93 % of control

COc1cc(OCc2ccc(OCc3ccccc3)cc2)cc(OC)c1OC
T/C [5]: 93 % of control
T/C [6]: 105 % of control
T/C [7]: 95 % of control

CC1SC2(C(=O)Nc3ccc([N+](=O)[O-])cc32)N(c2ccc(Cl)cc2)C1=O (centres undefined)
T/C (dose: 60.0 mg/kg/injection, schedule: Q01DX005 (ip), vehicle: saline with Tween-80): 91 % of control
T/C (dose: 120.0 mg/kg/injection, schedule: Q01DX005 (ip), vehicle: saline with Tween-80): 91 % of control
T/C (dose: 240.0 mg/kg/injection, schedule: Q01DX005 (ip), vehicle: saline with Tween-80): 91 % of control

CCOC(=O)N1CCN(CCCCCOc2ccc(CC(C)(C)C)cc2Cl)CC1
T/C [3]: 110 % of control
T/C [8]: 93 % of control
T/C [4]: 106 % of control
T/C [9]: 100 % of control
T/C [10]: 111 % of control
T/C [11]: 113 % of control
T/C (dose: 200.0 mg/kg/injection, schedule: Q01DX009 (ip), vehicle: saline with Tween-80): 117 % of control
T/C (dose: 200.0 mg/kg/injection, schedule: Q01DX009 (ip), vehicle: saline): 92 % of control

CC(C)(N)P(=O)(O)O
T/C (dose: 25.0 mg/kg/injection, schedule: Q01DX009 (ip), vehicle: suspension in saline): 96 % of control
T/C (dose: 50.0 mg/kg/injection, schedule: Q01DX009 (ip), vehicle: suspension in saline): 92 % of control
T/C (dose: 100.0 mg/kg/injection, schedule: Q01DX009 (ip), vehicle: suspension in saline): 100 % of control
T/C (dose: 200.0 mg/kg/injection, schedule: Q01DX009 (ip), vehicle: suspension in saline): 106 % of control

CCOc1nc2ccccc2nc1OCC
T/C [12]: 95 % of control
T/C [13]: 104 % of control

Cn1c2ccccc2c2nnc(N/N=C/c3cccnc3)nc21
T/C (dose: 100.0 mg/kg/injection, schedule: Q04DX002 (ip), vehicle: saline with Tween-80): 91 % of control
T/C (dose: 200.0 mg/kg/injection, schedule: Q04DX002 (ip), vehicle: saline with Tween-80): 86 % of control and 90 % of control
T/C (dose: 400.0 mg/kg/injection, schedule: Q04DX002 (ip), vehicle: saline with Tween-80): 99 % of control and 90 % of control and 95 % of control

NC(=O)CC(NC(=O)OCC1c2ccccc2-c2ccccc21)C(=O)O (centres undefined)
T/C (dose: 12.5 mg/kg/injection, schedule: Q01DX005 (ip), vehicle: Klucel (hydroxypropylcellulose) (HPC)): 92 % of control
T/C (dose: 25.0 mg/kg/injection, schedule: Q01DX005 (ip), vehicle: Klucel (hydroxypropylcellulose) (HPC)): 100 % of control
T/C [12]: 100 % of control and 105 % of control

CN(N=O)C(=O)NCCCCCNC(=O)N(C)N=O
T/C [1]: 100 % of control
T/C [14]: 104 % of control
T/C (dose: 400.0 mg/kg/injection, schedule: Q01DX009 (ip), vehicle: saline with Tween-80): 150 % of control and 163 % of control
T/C [2]: 104 % of control
T/C (dose: 600.0 mg/kg/injection, schedule: Q01DX009 (ip), vehicle: saline with Tween-80): 163 % of control

C=CCOc1cc2c(cc1C/C=C/c1ccccc1)OCO2
T/C [5]: 102 % of control
T/C [6]: 103 % of control
T/C [7]: 109 % of control

Cn1c(-c2ccc3c(c2)OCO3)nn(CN2CCOCC2)c1=S
T/C [12]: 97 % of control
T/C [13]: 100 % of control
T/C (dose: 200.0 mg/kg/injection, schedule: Q01DX005 (ip), vehicle: Klucel (hydroxypropylcellulose) (HPC)): 107 % of control

CC1CN1P(=S)(Oc1ccccc1)N1CC1C (centres undefined)
T/C [10]: 110 % of control
T/C [1]: 109 % of control
T/C [14]: 118 % of control
T/C [2]: 122 % of control

COc1ccc(/C=N/N=c2/sc3ccccc3n2CC(=O)O)cc1
T/C (dose: 100.0 mg/kg/injection, schedule: Q01DX001 (ip), vehicle: saline with Tween-80): 108 % of control
T/C (dose: 200.0 mg/kg/injection, schedule: Q01DX001 (ip), vehicle: saline with Tween-80): 87 % of control

CN(C)CCC(=O)C(=Cc1c(Cl)cccc1Cl)C(=O)CCN(C)C
T/C (dose: 7.5 mg/kg/injection, schedule: Q01DX005 (ip), vehicle: saline): 119 % of control and 120 % of control
T/C (dose: 15.0 mg/kg/injection, schedule: Q01DX005 (ip), vehicle: saline): 120 % of control and 123 % of control

S=P12OCCC(CO1)O2 (centres undefined)
T/C (dose: 100.0 mg/kg/injection, schedule: Q04DX003 (ip), vehicle: Klucel (hydroxypropylcellulose) (HPC)): 100 % of control
T/C (dose: 200.0 mg/kg/injection, schedule: Q04DX003 (ip), vehicle: Klucel (hydroxypropylcellulose) (HPC)): 97 % of control
T/C (dose: 400.0 mg/kg/injection, schedule: Q04DX003 (ip), vehicle: Klucel (hydroxypropylcellulose) (HPC)): 97 % of control

CC(O)CNC1c2ccccc2CC1O (centres undefined)
T/C [8]: 108 % of control
T/C [9]: 100 % of control
T/C [11]: 100 % of control

C/C=C1/CN2CCC34c5ccccc5N(C(C)=O)C3C(CO)C1CC24 (centres undefined)
T/C (dose: 11.25 mg/kg/injection, schedule: Q01DX009 (ip), vehicle: saline with Tween-80): 106 % of control
T/C (dose: 22.5 mg/kg/injection, schedule: Q01DX009 (ip), vehicle: saline with Tween-80): 100 % of control
T/C (dose: 45.0 mg/kg/injection, schedule: Q01DX009 (ip), vehicle: saline with Tween-80): 102 % of control
T/C (dose: 90.0 mg/kg/injection, schedule: Q01DX009 (ip), vehicle: saline with Tween-80): 100 % of control

CCC(C)NC(=O)C(C)O (centres undefined)
T/C (dose: 50.0 mg/kg/injection, schedule: Q01DX005 (ip), vehicle: saline): 95 % of control
T/C (dose: 100.0 mg/kg/injection, schedule: Q01DX005 (ip), vehicle: saline): 99 % of control
T/C (dose: 200.0 mg/kg/injection, schedule: Q01DX005 (ip), vehicle: saline): 97 % of control

Brc1cccc2[s+]snc12
T/C [5]: 101 % of control
T/C [6]: 105 % of control
T/C [7]: 97 % of control
